O=C(O)c1cc([N+](=O)[O-])ccc1O
solubility (mole fraction)
Details	278.15 K	283.15 K	288.15 K	293.15 K	298.15 K	303.15 K	308.15 K	313.15 K	318.15 K	323.15 K
in 1,4-dioxane	–	–	0.105	0.112	0.12	0.129	0.137	0.147	0.158	0.168
in DMF	0.0752	0.0819	0.0894	0.0993	0.111	0.126	0.143	0.161	0.181	0.204
in NMP	0.105	0.111	0.119	0.13	0.141	0.156	0.17	0.187	0.204	0.223
in acetonitrile	0.0327	0.0366	0.0416	0.0481	0.0553	0.0632	0.0724	0.0814	0.0908	0.102
in ethanol	0.0281	0.0307	0.0338	0.0379	0.0429	0.0481	0.0541	0.0605	0.0675	0.0752
in ethyl acetate	0.0202	0.0234	0.027	0.031	0.0355	0.0404	0.0455	0.0509	0.0566	0.063
in ethylene glycol	0.00911	0.0116	0.0142	0.0164	0.0197	0.0233	0.0262	0.0308	0.035	0.0393
in isobutanol	0.0125	0.0149	0.0179	0.0211	0.0252	0.0296	0.0343	0.0383	0.043	0.0495
in isopropanol	0.0255	0.0286	0.0322	0.0367	0.0406	0.046	0.052	0.0575	0.0641	0.0728
in methanol	0.0316	0.0345	0.038	0.0427	0.0479	0.0538	0.0596	0.0661	0.0728	0.0807
in n-butanol	0.0173	0.0203	0.0237	0.0275	0.032	0.0368	0.0421	0.0474	0.0533	0.06
in n-propanol	0.0232	0.0266	0.0302	0.0342	0.0387	0.0433	0.0488	0.0537	0.0597	0.0656
in water	3.03e-05	3.95e-05	5.22e-05	6.76e-05	8.62e-05	0.000107	0.000133	0.000165	0.000202	0.000253

Reference: BigSolDB 2.1
